According to patent US6288277A, “Benzylamine and phenylethylamine derivatives, processes for preparing the same and their use as medicaments” (Boehringer Ingelheim Pharma KG, priority 1997, dated 2001):
Where a name gives a salt, the structure may show the parent alone.

molecular target: LTB4-receptor (Homo sapiens, UniProt Q15722); assay: Ki (LTB4-receptor; tests as described in WO 93/16036, pages 15 to 17); assay type: binding
Sequence (Q15722 whole entry): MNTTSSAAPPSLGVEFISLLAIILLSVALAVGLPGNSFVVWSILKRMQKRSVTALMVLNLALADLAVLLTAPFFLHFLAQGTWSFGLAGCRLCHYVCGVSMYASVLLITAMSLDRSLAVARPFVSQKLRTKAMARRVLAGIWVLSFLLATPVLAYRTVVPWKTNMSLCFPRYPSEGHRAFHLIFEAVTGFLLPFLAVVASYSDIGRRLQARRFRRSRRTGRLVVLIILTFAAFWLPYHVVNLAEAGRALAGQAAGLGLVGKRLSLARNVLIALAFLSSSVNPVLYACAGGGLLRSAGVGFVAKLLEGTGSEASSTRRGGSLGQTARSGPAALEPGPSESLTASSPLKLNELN

Structure (SMILES)	Ki
NCc1ccc(OCc2cccc(COc3cccc(C(=O)c4ccccc4)c3)c2)cc1	13.8 nM
NCc1ccc(OCc2cccc(COc3ccc(C4(c5ccc(O)cc5)CCC4)cc3)c2)cc1	11.1 nM
NCc1ccc(OCc2cccc(COc3ccc(S(=O)(=O)c4ccc(O)cc4)cc3)c2)cc1	1.9 nM
NCc1ccc(OCc2cccc(COc3ccc(Sc4ccc(O)cc4)cc3)c2)cc1	28.7 nM
CC(C)(c1ccc(OCc2cccc(COc3ccc(CN)cc3)c2)cc1)c1ccc(O[C@@H]2O[C@H](CO)[C@@H](O)[C@H](O)[C@H]2O)cc1	0.55 nM
COC(=O)c1ccc(C(C)(C)c2ccc(OCc3cccc(COc4ccc(CN)cc4)c3)cc2)cc1	11.4 nM
CC(C)N(C(=O)c1ccc(C(C)(C)c2ccc(OCc3cccc(COc4ccc(CN)cc4)c3)cc2)cc1)C(C)C	13.1 nM
CCOC(=O)NCC(C)(C)c1ccc(OCc2cccc(COc3ccc(CN)cc3)c2)cc1	4.5 nM
CC(C)(C)Oc1ccc(OCc2cccc(COc3ccc(CN)cc3)c2)cc1	7.5 nM
CC(C)(c1ccc(OCc2cccc(COc3ccc(CN)cc3)c2)cc1)c1ccc(C(=O)N2CCCCC2)cc1	0.86 nM
CC(C)(c1ccccc1)c1ccc(OCc2cccc(COc3ccc(CN)cc3)c2)c(O)c1	17.6 nM
NCc1ccc(OCc2cccc(COc3ccc(Cc4ccc(O)cc4)cc3)c2)cc1	38.6 nM
CC(C)(c1ccc(O)cc1)c1ccc(OCc2cccc(COc3ccc(CN)cc3)c2)c(O)c1	2.4 nM
CC(C)(c1ccccc1)c1ccc(OCc2cccc(COc3ccc(CCN)cc3)c2)cc1 [2-[4-[[3-[[4-[1-phenyl-1-methylethyl]phenoxy]methyl]phenyl]methoxy]]-ethylamine hydrochloride]	30.6 nM
CC(C)(c1ccc(O)cc1)c1ccc(OCc2cccc(COc3ccc(CN)cc3)c2)cc1 [4-[[3-[[4-[1-(4-Hydroxyphenyl)-1-methylethyl]phenoxy]methyl]phenyl]methoxy]-benzylamine hydrochloride]	15.7 nM

Results, then the compound that gave them:

Ki	Structure (SMILES)
16.2 nM	CC(C)(c1ccccc1)c1ccc(OCc2cccc(COc3ccc(CN)cc3)c2)cc1
21.5 nM	CC(c1ccc(O)cc1)c1ccc(OCc2cccc(COc3ccc(CN)cc3)c2)cc1 (stereo not drawn)
1.6 nM	NCc1ccc(OCc2cccc(COc3ccc([S+]([O-])c4ccc(O)cc4)cc3)c2)cc1 (stereo not drawn)
27.9 nM	CC(C)(c1ccc(O)cc1)c1ccc(OCc2cccc(COc3ccc(CN)cc3)c2F)cc1
59.7 nM	NCc1ccc(OCc2cccc(COc3ccc(Oc4ccc(O)cc4)cc3)c2)cc1
32.5 nM	Cc1cc(C(C)(C)c2ccc(OCc3cccc(COc4ccc(CN)cc4)c3)c(C)c2)ccc1O
50.8 nM	CC(C)(c1ccc(O)cc1)c1ccc(C(C)(C)c2ccc(OCc3cccc(COc4ccc(CN)cc4)c3)cc2)cc1
14.9 nM	CCOC(=O)CCC(C)(c1ccc(O)cc1)c1ccc(OCc2cccc(COc3ccc(CN)cc3)c2)cc1 (stereo not drawn)
0.5 nM	CC(CCC(=O)O)(c1ccc(O)cc1)c1ccc(OCc2cccc(COc3ccc(CN)cc3)c2)cc1 (stereo not drawn)
263 nM	CCOC(=O)NCc1ccc(OCc2cccc(COc3ccc(C(C)(C)c4ccc(O)cc4)cc3)c2)cc1
2.85 nM	CCOC(=O)C(C)(c1ccc(O)cc1)c1ccc(OCc2cccc(COc3ccc(CN)cc3)c2)cc1 (stereo not drawn)
67.3 nM	CC(C)(CN)c1ccc(OCc2cccc(COc3ccc(CN)cc3)c2)cc1
21.9 nM	CC(C)(c1ccccc1)c1ccc(O)c(OCc2cccc(COc3ccc(CN)cc3)c2)c1
21.8 nM	NCc1ccc(OCc2cccc(COc3ccc(C(c4ccc(O)cc4)(C(F)(F)F)C(F)(F)F)cc3)c2)cc1
10.6 nM	CC(C)(c1ccc(O)cc1F)c1ccc(OCc2cccc(COc3ccc(CN)cc3)c2)cc1F
